From patent US8916703B2, “Dithiinopyridazinone derivates” (Bayer Intellectual Property GmbH, priority 2010, dated 2014)

Assays:
Puccinia recondita = assay: Puccinia test (wheat)/protective; format: in vivo; conditions: wheat plants, protective spray, application rate 1500 ppm, evaluation 7-9 days after inoculation
Description: Puccinia Test (Wheat)/Protective
• Solvent: 49 parts by weight of N,N-dimethylformamide • Emulsifier: 1 part by weight of alkylaryl polyglycol ether
An appropriate preparation of active compound is produced by mixing 1 part by weight of active compound with the stated amounts of solvent and emulsifier and diluting the concentrate with water to the desired concentration. To test for protective activity, young wheat plants are sprayed with the preparation of active compound at the stated application rate. A day after the treatment, the plants are inoculated with a spore suspension of Puccinia recondita and then stand for 48 hours at 100% relative humidity and 22° C. Subsequently the plants stand at 80% relative humidity and a temperature of 20° C. After 7-9 days following inoculation, evaluation takes place. Here, 0% denotes an efficacy which corresponds to that of the control, whereas an efficacy of 100% means that no infestation is observed.

[1] = logP by HPLC on reversed-phase column (EEC Directive 79/831 Annex V.A8); format: physicochemical; conditions: reversed-phase C18 HPLC column, 43° C., acidic range pH 2.7 (0.1% formic acid/acetonitrile), read-out: Log P
Procedure: The logP values reported in the preparation examples and tables above are determined in accordance with EEC Directive 79/831 Annex V.A8 by means of HPLC (High Performance Liquid Chromatography) on a reversed-phase column (C18). Temperature: 43° C. The determination with the LC-MS in the acidic range takes place at a pH of 2.7 using 0.1% aqueous formic acid and acetonitrile (containing 0.1% formic acid) as eluents; linear gradient from 10% acetonitrile to 95% acetonitrile. Calibration takes place using unbranched alkan-2-ones (having 3 to 16 carbon atoms) of which the logP values are known (logP values determined on the basis of the retention times, by linear interpolation between two successive alkanones).

chromatographic logP [1]: 4.6
SMILES: CC(C)(C)n1ncc2c(c1=O)Sc1c(cnn(C(C)(C)C)c1=O)S2 [Compound 7, 2,8-di-tert-butyl[1,4]dithilino[2,3-d:5,6-d′]dipyridazine-1,9(2H,8H)-dione]
Efficacy in % (Puccinia recondita): 70%
